From patent publication US20240016783A1 (Icahn School of Medicine at Mount Sinai, priority 2020, published 2024)

How the values were obtained:
rodent models = conditions: cited from earlier work
rodents = conditions: through clustering of dendritic spines; cited from earlier work
[1] = tested on: Alzheimer's disease patients; conditions: in vivo
[2] = tested on: mouse model of AD (SXFAD); conditions: early-onset aggressive mouse model of AD (SXFAD); cited from earlier work

Abdominal discomfort ([1]; human, 6 months): 15.4%
Cough ([1]; human, 6 months): 19.23%
Diarrhea ([1]; human, 6 months): 15.4%
Dizziness ([1]; human, 6 months): 15.4%
Elevated liver enzymes ([1]; human, 6 months): 7.7%
Nausea ([1]; human, 6 months): 7.7%
Urinary frequency ([1]; human, 6 months): 11.5%
SMILES: Nc1nc2ccc(OC(F)(F)F)cc2s1 [Riluzole, 2-Amino-6-(trifluoromethoxy)benzothiazole]
Gene expression profiles related to aging and AD (rodent models): rescues gene expression profiles related to aging and AD
Age-related cognitive decline (rodents): can prevent age-related cognitive decline
Adverse event that led to removal from the trial ([1]; human, 6 months): 15.4%
Patients having at least one adverse event during the study ([1]; human, 6 months): 88.5%
Serious adverse events ([1]; human, 6 months): 7.7%
Difference in adverse events between treatment groups [1]: no statistical differences
Gene expression changes in immune pathways [2]: reversed many of the gene expression changes in immune pathways
Hippocampal-dependent spatial memory decline [2]: prevented hippocampal-dependent spatial memory decline
